Measured values as given in patent US20190127359A1, “Compounds & Methods for the Enhanced Degradation of Targeted Proteins & Other Polypeptides by an E3 Ubiquitin Ligase” (YALE UNIVERSITY, priority 2012, published 2019).
Read-outs that look alike come from different tables or passages of the source.

Molecular target: VHL (Homo sapiens, UniProt P40337)
Test: Fluorescence polarization competition assay (HIF-1α peptide FP displacement)

Row | SMILES | IC50 (IC50 (μM) 10% DMSO, 10% DMSO) | IC50 (IC50 (μM) 1% DMSO, 1% DMSO) | other results
1 | Cc1n[nH]cc1C(=O)N1C[C@H](O)C[C@H]1C(=O)NCc1ccc(Cl)cc1 [VL102] | 64.5 µM | – | –
2 | Cc1nc(C(=O)N2C[C@H](O)C[C@H]2C(=O)NCc2ccc(Cl)cc2)co1 [VL101] | 940 µM | – | –
3 | Cc1cc(CC(=O)N2C[C@H](O)C[C@H]2C(=O)NCc2cccc(-c3cc[nH]c3)c2)on1 [VL134] | 48.1 µM | 54 µM | –
4 | Cn1cc(CC(=O)N2C[C@H](O)C[C@H]2C(=O)NCc2ccc(Cl)cc2)cn1 [VL157] | 372 µM | 360 µM | –
5 | O=C(NCc1ccc(Cl)cc1)[C@@H]1C[C@@H](O)CN1C(=O)c1ccccc1[N+](=O)[O-] [VL065] | 74.2 µM | – | –
6 | COc1cc(/C=C/C(=O)N2C[C@H](O)C[C@H]2C(=O)NCc2ccc(Cl)cc2)cc(OC)c1O [VL057] | > 1000 µM | – | –
7 | Cc1cc(CC(=O)N2C[C@H](O)C[C@H]2C(=O)NCc2cccc(-c3cccn3C)c2)on1 [VL118] | 16.4 µM | 31 µM | –
8 | Cc1cc(CC(=O)N2C[C@H](O)C[C@H]2C(=O)NCc2ccc(Cl)cc2)on1 [VL021] | 36 µM | – | –
9 | Cc1cc(CC(=O)N2C[C@H](O)C[C@H]2C(=O)NCc2ccccc2Cl)on1 [VL028] | 210 µM | – | –
10 | O=C(NCc1ccc(Cl)cc1)[C@@H]1C[C@@H](O)CN1C(=O)CN1C(=O)CSC1=S [VL108] | 347 µM | – | –
11 | CS(=O)(=O)N1C[C@H](O)C[C@H]1C(=O)Nc1ccc(Br)cc1F [VL010] | – | – | IC50 (μM) 10% DMSO (10% DMSO): Inactive
12 | COc1ccc(CNC(=O)[C@@H]2C[C@@H](O)CN2C(=O)Cc2cc(C)no2)cc1OC [VL025] | 517 µM | – | –
13 | CCCNC(=O)OC[C@@H](NC(=O)[C@@H]1C[C@@H](O)CN1C(=O)Cc1cc(C)no1)c1ccc(Cl)cc1 [VL163] | 508 µM | 610 µM | –
14 | Cc1cc(CC(=O)N2C[C@H](O)C[C@H]2C(=O)NCc2ccc(-c3ccc(F)nc3)cc2)on1 [VL151] | 11 µM | 33 µM | –
15 | O=C(NCc1ccc(Cl)cc1)[C@@H]1C[C@@H](O)CN1C(=O)c1cccc(F)c1 [VL075] | 35.5 µM | – | –
16 | Cc1cc(CC(=O)N2C[C@H](O)C[C@H]2C(=O)NCc2ccc(-c3ncco3)cc2)on1 [VL112] | 11.3 µM | – | –
17 | O=C(NCc1ccc(Cl)cc1)[C@@H]1C[C@@H](O)CN1C(=O)c1ccccc1Cl [VL073] | 39 µM | 46 µM | –
18 | Cc1cc(CC(=O)N2C[C@H](F)C[C@H]2C(=O)NCc2ccc(-c3cnco3)cc2)on1 [VL113] | – | – | IC50 (μM) 1% DMSO (1% DMSO): Inactive; IC50 (μM) 10% DMSO (10% DMSO): Inactive
19 | O=C(NCc1ccc(Cl)cc1)[C@@H]1C[C@@H](O)CN1C(=O)c1cccnc1 [VL097] | 49.4 µM | – | –
20 | Cc1c(N)cccc1C(=O)N1C[C@H](O)C[C@H]1C(=O)NCc1ccc(Cl)cc1 [VL071] | 10.4 µM | – | –
21 | Cc1cc(CC(=O)N2C[C@H](O)C[C@H]2C(=O)NCc2ccc(-c3cnc[nH]3)cc2)on1 [VL158] | 266 µM | 180 µM | –
22 | O=C(NCc1ccc(Cl)cc1)[C@@H]1C[C@@H](O)CN1C(=O)c1cccc2cnccc12 [VL128] | 57.9 µM | 224 µM | –

Row | SMILES | IC50 (IC50 (μM) 10% DMSO, 10% DMSO) | IC50 (IC50 (μM) 1% DMSO, 1% DMSO) | other results
23 | Cc1cc(CC(=O)N2C[C@H](O)C[C@H]2C(=O)NCc2ccc(C#N)cc2)on1 [VL088] | 18.2 µM | – | –
24 | Cc1cc(CC(=O)N2C[C@H](O)C[C@H]2C(=O)NCc2ccc(C(=O)C(C)C)cc2)on1 [VL089] | 40.8 µM | – | –
25 | O=C(NCc1ccc(Cl)cc1)[C@@H]1C[C@@H](O)CN1C(=O)c1cccc(-c2cnco2)c1 [VL122] | 102 µM | 220 µM | –
26 | O=C(NCc1ccc(Cl)cc1)[C@@H]1C[C@@H](O)CN1C(=O)c1cncc(Br)c1 [VL100] | 63.6 µM | – | –
27 | Cc1cc(CC(=O)N2C[C@H](O)C[C@H]2C(=O)NCc2ccc(Cl)cc2Cl)on1 [VL085] | 27.1 µM | – | –
28 | COCc1cn(CC(=O)N2C[C@H](O)C[C@H]2C(=O)NCc2ccc(-c3ccccc3)cc2)nn1 [VL137] | 35.6 µM | 128 µM | –
29 | Cc1cc(CC(=O)N2C[C@H](O)C[C@H]2C(=O)NCc2ccc(Cl)c(Cl)c2)on1 [VL030] | 215 µM | – | –
30 | O=C(NCc1ccc(Cl)cc1)[C@@H]1C[C@@H](O)CN1C(=O)Cc1cccnc1 [VL105] | > 1000 µM | – | –
31 | Cc1cc(CC(=O)N2C[C@H](O)C[C@H]2C(=O)NCc2ccc(-c3ccncc3)cc2)on1 [VL150] | 16 µM | 41 µM | –
32 | N#Cc1ccc(CC(=O)N2C[C@H](O)C[C@H]2C(=O)NCc2ccc(Cl)cc2)s1 [VL068] | > 1000 µM | – | –
33 | O=C(NCc1ccc(Cl)cc1)[C@@H]1C[C@@H](O)CN1C(=O)Cc1ccco1 [VL052] | > 1000 µM | – | –
34 | Cc1cc(CC(=O)N2C[C@H](O)C[C@H]2C(=O)NCc2ccccc2)on1 [VL034] | – | – | IC50 (read-out: IC50 (μM) 1% DMSO, 1% DMSO): 130 µM
35 | O=C(NCc1ccc(Cl)cc1)[C@@H]1C[C@@H](O)CN1C(=O)c1ccc2[nH]ncc2c1 [VL126] | 88.1 µM | 82 µM | –
36 | Cc1ccc(S(=O)(=O)N2C[C@H](O)C[C@H]2C(=O)NCCc2ccc(O)cc2)cc1 [VL003] | > 1000 µM | – | –
37 | Cc1cc(CC(=O)N2C[C@H](O)C[C@H]2C(=O)N[C@H](CO)c2ccc(Cl)cc2)on1 [VL162] | 235 µM | – | –
38 | Cc1cc(CC(=O)N2C[C@H](O)C[C@H]2C(=O)Nc2ccc(Br)cc2F)on1 [VL011] | > 1000 µM | – | –
39 | O=C(NCc1ccc(Cl)cc1)[C@@H]1C[C@@H](O)CN1C(=O)c1cccc(-c2ncc[nH]2)c1 [VL123] | 560 µM | 404 µM | –
40 | Cc1cc(CC(=O)N2C[C@H](O)C[C@H]2C(=O)NCc2ccc(F)cc2)on1 [VL020] | 295 µM | – | –
41 | Cc1cc(CC(=O)N2C[C@H](O)C[C@H]2C(=O)NCc2ccccn2)on1 [VL019] | 451 µM | – | –
42 | COC(=O)Cc1cn(-c2ccccc2C(=O)N2C[C@H](O)C[C@H]2C(=O)NCc2ccc(Cl)cc2)nn1 [VL153] | 978 µM | – | –
43 | Cc1cc(CC(=O)N2C[C@H](O)C[C@H]2C(=O)NCc2cccc3cccnc23)on1 [VL094] | 540 µM | – | –
44 | Nc1ccc(C(=O)N2C[C@H](O)C[C@H]2C(=O)NCc2ccc(Cl)cc2)cc1 [VL072] | 29.5 µM | – | –

Row | SMILES | IC50 (IC50 (μM) 10% DMSO, 10% DMSO) | IC50 (IC50 (μM) 1% DMSO, 1% DMSO) | other results
45 | Cc1cc(CC(=O)N2C[C@H](O)C[C@H]2C(=O)NCc2ccc(OC(F)(F)F)cc2)on1 [VL045] | 146 µM | – | –
46 | O=C(NCc1ccc(Cl)cc1)[C@@H]1C[C@@H](O)CN1C(=O)c1ccc([N+](=O)[O-])cc1 [VL067] | 70.7 µM | – | –
47 | COc1ccccc1N1CCN(C(=O)[C@@H]2C[C@@H](O)CN2C(=O)Cc2cc(C)no2)CC1 [VL043] | > 1000 µM | – | –
48 | Cc1cc(CC(=O)N2C[C@H](O)C[C@H]2C(=O)N[C@@H](CO)c2ccc(Cl)cc2)on1 [VL161] | 36.4 µM | 35 µM | –
49 | Cc1cc(CC(=O)N2C[C@H](O)C[C@H]2C(=O)NCc2ccc(-c3cn[nH]c3)cc2)on1 [VL139] | 24.7 µM | 44 µM | –
50 | CCOC(=O)Cn1cc(-c2cccc(C(=O)N3C[C@H](O)C[C@H]3C(=O)NCc3ccc(Cl)cc3)c2)nn1 [VL148] | 23.8 µM | 113 µM | –
51 | Cc1ccc(S(=O)(=O)N2C[C@H](O)C[C@H]2C(=O)NCc2cccc(Cl)c2)cc1 [VL008] | > 1000 µM | – | –
52 | O=C(NCc1ccc(Cl)cc1)[C@@H]1C[C@@H](O)CN1C(=O)Cc1cccs1 [VL053] | > 1000 µM | – | –
53 | Cc1cc(CC(=O)N2C[C@H](O)C[C@H]2C(=O)NCc2ccc(-c3cc[nH]c3)cc2)on1 [VL133, (2S,4R)—N-(4-(1H-pyrrol-3-yl)benzyl)-4-hydroxy-1-(2-(3-methylisoxazol-5-yl)acetyl)pyrrolidine-2-carboxamide] | 2.2 µM | 7.5 µM | –
54 | Cc1cc(CC(=O)N2C[C@H](O)C[C@H]2C(=O)NCc2cccs2)on1 [VL016] | ~730 µM | – | –
55 | O=C(NCc1ccc(Cl)cc1)[C@@H]1C[C@@H](O)CN1C(=O)c1ccccc1-c1cnco1 [VL121] | > 1000 µM | > 1000 µM | –
56 | CCCNC(=O)OC[C@H](NC(=O)[C@@H]1C[C@@H](O)CN1C(=O)Cc1cc(C)no1)c1ccc(Cl)cc1 [VL164] | 72.9 µM | 40 µM | –
57 | COc1ccc(Cn2cncc2-c2ccc(CNC(=O)[C@@H]3C[C@@H](O)CN3C(=O)Cc3cc(C)no3)cc2)cc1 [VL132] | 77.7 µM | 85 µM | –
58 | Cc1cc(CC(=O)N2C[C@H](O)C[C@H]2C(=O)NCc2ccc3c(c2)OCO3)on1 [VL017] | ~510 µM | – | –
59 | O=C(NCc1ccc(Cl)cc1)[C@@H]1C[C@@H](O)CN1C(=O)c1ccc(Cl)cc1Br [VL081] | 15.5 µM | – | –
60 | O=C(NCc1ccc(Cl)cc1)[C@@H]1C[C@@H](O)CN1C(=O)c1cccc2[nH]ccc12 [VL124] | 990 µM | 670 µM | –
61 | Cc1cc(CC(=O)N2C[C@H](O)C[C@H]2C(=O)NCc2cccc(Cl)c2)on1 [Compound 1] | – | – | IC50 (Table 1A, binding of initial ligands to VHL, average of three independent trials, each in triplicate): 117 µM; displacement of the fluorescent HIF-1α peptide (fluorescence polarization, result in words): able to displace the fluorescent peptide albeit at high concentrations
62 | Cc1cc(CC(=O)N2C[C@H](O)C[C@H]2C(=O)NCc2ccc(C)o2)on1 [VL044] | 286 µM | – | –
63 | Cc1cc(CC(=O)N2C[C@H](O)C[C@H]2C(=O)NCc2ccc(C(=O)O)cc2)on1 [VL146] | 129 µM | 196 µM | –
64 | NC(=O)CCC(=O)N1C[C@H](O)C[C@H]1C(=O)NCc1ccc(Cl)cc1 [VL050] | 332 µM | – | –
